Test results from patent US5919781A, “Use of NK-1 receptor antogonists for treating substance use disorders” (Merck Sharp & Dohme Ltd., priority 1996, dated 1999).
Like-named read-outs stand apart in the source and are kept apart here.

Columns and labels:
[1] = tested on: morphine withdrawal response in guinea-pigs; settings: systemic administration, only high doses active, Chahl & Johnston, 1992; cited from earlier work
[2] = tested on: cisplatin-induced emesis in ferrets; test: Ferret emesis (Assay 3), inhibition of cisplatin-induced emesis; format: in vivo; settings: Mustela putorius, po, 60 minutes before cisplatin 10 mg/kg i.v.; 4 hours observation; read-out: ferret emesis: ID90
Description: ASSAY 3: Ferret Emesis […] Ten minutes later they are fed with approximately 100 g of tinned cat food. At 60 minutes following oral dosing, cisplatin (10 mg/kg) is given i.v. via a jugular vein catheter inserted under a brief period of halothane anaesthesia. The catheter is then removed, the jugular vein ligated and the skin incision closed. The ferrets recover rapidly from the anaesthetic and are mobile within 10-20 minutes. The animals are observed continuously during recovery from the anaesthetic and for 4 hours following the cisplatin injection. The numbers of retches and vomits occurring during the 4 hours after cisplatin administration are recorded by trained observers.

NK-1 receptor = target: T1, NK-1 receptor (Meriones unguiculatus, UniProt Q5DUB1); test: Gerbil foot-tapping (Assay 2), inhibition of foot tapping induced by central infusion of NK-1 receptor agonist GR73632; format: in vivo, Mongolian gerbils; settings: iv
T1 construct: male or female Mongolian gerbils (35-70 g) are anaesthetised; from tissue; host or cells: brain of the living Mongolian gerbil (in vivo, agonist infused intracerebroventricularly)
T1 sequence (Q5DUB1 whole entry, the tested form may be a part): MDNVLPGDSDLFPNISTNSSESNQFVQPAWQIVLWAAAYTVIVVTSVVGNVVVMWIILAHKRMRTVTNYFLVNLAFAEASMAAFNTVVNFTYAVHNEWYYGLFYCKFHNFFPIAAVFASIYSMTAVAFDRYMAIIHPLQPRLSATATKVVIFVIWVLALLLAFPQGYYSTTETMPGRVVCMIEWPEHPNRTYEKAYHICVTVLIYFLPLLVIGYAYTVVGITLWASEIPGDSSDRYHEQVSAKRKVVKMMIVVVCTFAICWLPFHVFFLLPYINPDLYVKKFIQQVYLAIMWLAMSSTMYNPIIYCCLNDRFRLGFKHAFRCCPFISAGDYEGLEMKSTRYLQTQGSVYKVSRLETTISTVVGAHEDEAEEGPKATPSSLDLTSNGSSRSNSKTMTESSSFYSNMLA
Source text: ASSAY 2: Gerbil Foot-Tapping
CNS-penetrant NK-1 receptor antagonists for use in the present invention can be identified by their ability to inhibit foot tapping in gerbils induced by anxiogenic agents (such as pentagastrin) or central infusion of NK-1 receptor agonists such as GR73632, or caused by aversive stimulation such as foot shock or single housing, based on the method of Rupniak & Williams, Eur. J. Pharmacol., 1994, 265, 179.
Briefly, male or female Mongolian gerbils (35-70 g) are anaesthetised by inhalation of an isoflurane/oxygen mixture to permit exposure of the jugular vein in order to permit administration of test compounds or vehicle in an injection volume of 5 ml/kg i.v. Alternatively, test compounds may be administered orally or by subcutaneous or intraperitoneal routes. A skin incision is then made in the midline of the scalp to expose the skull. […]

[3] = tested on: naloxone-precipitated withdrawal signs in rats; settings: central (i.c.v.) injection; rats receiving morphine for five days; Maldonado et al, 1993; cited from earlier work

For `COc1ccccc1CNC1C2CCN(CC2)C1C(c1ccccc1)c1ccccc1` (centres unmarked) [CP-96,345], the “doses active in blocking the withdrawal response” value [1] is listed as 20 mg/kg.

`C[C@@H](O[C@H]1OCCN(Cc2n[nH]c(=O)[nH]2)[C@H]1c1ccc(F)cc1)c1cc(C(F)(F)F)cc(C(F)(F)F)c1` [2-(R)-(1-(R)-(3,5-bis(trifluoromethyl)phenyl)ethoxy)-3-(S)-(4-fluorophenyl)-4-(3-(5-oxo-1H,4H-1,2,4-triazolo)methyl)morpholine] gave an ED90 [2] of less than 3 mg/kg, an ED50 (NK-1 receptor; 5 min, i.v., 5 mins., administered immediately prior to GR73632 challenge, read-out: gerbil foot-tapping (5 mins.): ID50) of 0.36 mg/kg and an ED50 (NK-1 receptor; 24 hours prior to central NK1 agonist challenge, read-out: gerbil foot-tapping (24 hrs.): ID50) of 0.33 mg/kg.

In the case of `COc1ccccc1CC(=N)N1CC2C(=O)CCC(c3ccccc3)(c3ccccc3)C2C1` (centres unmarked) [RP67580], the “attenuation of naloxone-precipitated withdrawal signs” value [3] is given as “could attenuate naloxone-precipitated withdrawal signs”.
